From patent publication US12559487B2, “Crosslinked optically active secondary amine derivative” (Sumitomo Pharma Co., Ltd., priority 2019, dated 2026)
Like-named read-outs stand apart in the source and are kept apart here.

How the values were obtained:
[1] = target: T1, hERG (human Ether-a-go-go Related Gene) (Homo sapiens (Human), UniProt Q12809); experiment: Test 2: Test for the hERG inhibition (QPatch HT, CHO cell strain stably expressing hERG); details: for IC50: CHO cells stably expressing hERG, QPatch HT; for hERG/MV4; 11: hERG IC50 divided by MV4, 11 proliferation IC50; for gap between concentration inhibiting 50% of MV4; 11 proliferation and concentration inhibiting 50% of hERG current: hERG IC50 vs MV4, 11 IC50
T1 sequence (Q12809 whole entry): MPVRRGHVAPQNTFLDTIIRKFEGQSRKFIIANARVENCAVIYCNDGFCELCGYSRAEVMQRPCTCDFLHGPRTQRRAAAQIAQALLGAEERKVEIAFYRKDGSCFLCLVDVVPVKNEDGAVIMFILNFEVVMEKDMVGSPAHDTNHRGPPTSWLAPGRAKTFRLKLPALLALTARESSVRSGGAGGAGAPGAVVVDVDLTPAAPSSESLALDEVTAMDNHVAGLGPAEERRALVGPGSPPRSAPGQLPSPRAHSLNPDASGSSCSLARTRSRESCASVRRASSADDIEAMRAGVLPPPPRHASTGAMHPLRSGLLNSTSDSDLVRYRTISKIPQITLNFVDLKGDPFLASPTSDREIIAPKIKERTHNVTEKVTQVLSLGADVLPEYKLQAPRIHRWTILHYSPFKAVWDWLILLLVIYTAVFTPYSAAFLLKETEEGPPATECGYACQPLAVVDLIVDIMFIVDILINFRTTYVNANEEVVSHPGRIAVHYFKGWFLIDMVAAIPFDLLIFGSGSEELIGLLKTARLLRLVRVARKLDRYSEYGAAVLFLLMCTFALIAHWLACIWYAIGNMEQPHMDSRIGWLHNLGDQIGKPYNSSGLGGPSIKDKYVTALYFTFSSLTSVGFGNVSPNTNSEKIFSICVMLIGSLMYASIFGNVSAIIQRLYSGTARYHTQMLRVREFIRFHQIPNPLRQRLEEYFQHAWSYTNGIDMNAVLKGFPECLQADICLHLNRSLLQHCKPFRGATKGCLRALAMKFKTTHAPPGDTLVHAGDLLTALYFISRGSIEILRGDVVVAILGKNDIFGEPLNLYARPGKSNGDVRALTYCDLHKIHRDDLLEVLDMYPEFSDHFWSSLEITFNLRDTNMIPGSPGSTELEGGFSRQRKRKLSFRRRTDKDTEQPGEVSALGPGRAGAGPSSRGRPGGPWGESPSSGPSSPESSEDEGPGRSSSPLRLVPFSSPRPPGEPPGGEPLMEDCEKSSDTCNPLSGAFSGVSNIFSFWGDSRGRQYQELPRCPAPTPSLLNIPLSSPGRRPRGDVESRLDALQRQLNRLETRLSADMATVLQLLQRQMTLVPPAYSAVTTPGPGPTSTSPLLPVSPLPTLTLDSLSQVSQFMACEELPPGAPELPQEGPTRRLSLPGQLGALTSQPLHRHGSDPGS

MV4; 11 cells = experiment: Test 1: Test for evaluating the inhibition of cell proliferation; assay type: cell-based; details: for IC50: cultured for 7 days, PrestoBlue cell viability
Experimental: MV4; 11 cells were obtained from American Type Culture Collection (ATCC). The cells were cultured at 37° C. in the presence of 5% CO2 in RPMI 1640 medium containing 10% fetal bovine serum and 1% penicillin/streptomycin.
The cells were plated to a 96-well plate in 2000 cells/well, each test compound was added thereto to adjust the final concentration of DMSO to 0.1% of DMSO, and the cells were cultured for 7 days. After the cultivation, the cell viability was calculated with PrestoBlue™ Cell Viability Reagent (Invitrogen, A13261).

[2] = target: T1, hERG (human Ether-a-go-go Related Gene)
[3] = read-out: hERG IC50, hERG current

**Q.** `CC(C)N(C(=O)c1cc(F)ccc1-n1cc(C2CCN(C(=O)[C@H]3NC4CCC3CC4)CC2)c2ccncc21)C(C)C` [Example 1, 2-(3-{1-[(3S)-2-Azabicyclo[2.2.2]octane-3-carbonyl]piperidin-4-yl}-1H-pyrrolo[2,3-c]pyridin-1-yl)-5-fluoro-N,N-di(propan-2-yl)benzamide] was tested. Which IC50 ([1]; hERG IC50, hERG current) did it give?
**A.** 30000 nM

**Q.** And the “hERG/MV4; 11” value [1]?
**A.** 114

**Q.** What about the “gap between concentration inhibiting 50% of MV4; 11 proliferation and concentration inhibiting 50% of hERG current” value [1] of the same compound?
**A.** more than 100 fold

**Q.** What about the IC50 (MV4; 11 cells; Homo sapiens, MV4-11, 168 h) of the same compound?
**A.** 260 nM

**Q.** What does the source list for `CC(C)N(C)C(=O)c1cc(F)ccc1-n1cc(C2CCCN(C(=O)[C@H]3N[C@@H]4CC[C@H]3C4)CC2)c2ccncc21` (stereo partly drawn) [Example 10, 2-(3-{1-[(1R,3S,4S)-2-azabicyclo[2.2.1]heptane-3-carbonyl]azepan-4-yl}-1H-pyrrolo[2,3-c]pyridin-1-yl)-5-fluoro-N-methyl-N-(propan-2-yl)benzamide]?
**A.** hERG/MV4; 11 [1]: 621; gap between concentration inhibiting 50% of MV4; 11 proliferation and concentration inhibiting 50% of hERG current [1]: more than 100 fold

**Q.** For `C=C1C[C@@H]2CC[C@H]1[C@@H](C(=O)N1CCCC(c3cn(-c4ccc(F)cc4C(=O)N(C)C(C)C)c4cnccc34)CCC1)N2` [Example 16, 5-fluoro-N-methyl-2-(3-{1-[(1S,3S,4R)-5-methylidene-2-azabicyclo[2.2.2]octane-3-carbonyl]azocan-5-yl}-1H-pyrrolo[2,3-c]pyridin-1-yl)-N-(propan-2-yl)benzamide], which IC50 (MV4; 11 cells) is on record?
**A.** 240 nM

**Q.** “2-(3-{1-[(3S)-2-azabicyclo[2.2.2]octane-3-carbonyl]pyrrolidin-3-yl}-1H-pyrrolo[2,3-c]pyridin-1-yl)-5-fluoro-N-methyl-N-(propan-2-yl)benzamide [Example 7]” was tested. Which “hERG/MV4; 11” value [2] did it give?
**A.** 775

**Q.** What about the IC50 (MV4; 11 cells) of the same compound?
**A.** 52 nM

**Q.** “2-[3-({4-[(3S)-2-azabicyclo[2.2.2]octane-3-carbonyl]-1,4-diazepan-1-yl}methyl)-1H-pyrrolo[2,3-c]pyridin-1-yl]-5-fluoro-N-methyl-N-(propan-2-yl)benzamide [Example 29]” was tested. Which “hERG/MV4; 11” value [2] did it give?
**A.** >34

**Q.** What about the IC50 (MV4; 11 cells) of the same compound?
**A.** 2900 nM

**Q.** How did the IC50 ([1]; hERG IC50, hERG current) turn out when `CC(C)N(C(=O)c1cc(F)ccc1-n1cc(C2=CCCN(C(=O)[C@H]3NC4CCC3CC4)CCC2)c2ccncc21)C(C)C` [Example 14, 2-(3-{1-[(3S)-2-azabicyclo[2.2.2]octane-3-carbonyl]-1,2,3,4,7,8-hexahydroazocin-5-yl}-1H-pyrrolo[2,3-c]pyridin-1-yl)-5-fluoro-N,N-di(propan-2-yl)benzamide] was run?
**A.** 3200 nM

**Q.** And the “hERG/MV4; 11” value [1]?
**A.** 1.5

**Q.** And the IC50 (MV4; 11 cells; Homo sapiens, MV4-11, 168 h)?
**A.** 2200 nM

**Q.** With “2-(3-{1-[(3S)-2-azabicyclo[2.2.2]octane-3-carbonyl]-1,2,3,6-tetrahydropyridin-4-yl}-1H-pyrrolo[2,3-c]pyridin-1-yl)-5-fluoro-N,N-di(propan-2-yl)benzamide [Example 3]” as the compound, how does the “hERG/MV4; 11” value [2] read?
**A.** 489

**Q.** And the IC50 (MV4; 11 cells)?
**A.** 36 nM

**Q.** With “2-[3-({1-[(3S)-2-azabicyclo[2.2.2]octane-3-carbonyl]piperidin-4-yl}methyl)-1H-pyrrolo[2,3-c]pyridin-1-yl]-5-fluoro-N-methyl-N-(propan-2-yl)benzamide [Example 27]” as the compound, how does the “hERG/MV4; 11” value [2] read?
**A.** >128

**Q.** What about the IC50 (MV4; 11 cells) of the same compound?
**A.** 780 nM

**Q.** Which results are given for “2-(3-{1-[(3S)-2-azabicyclo[2.2.2]octane-3-carbonyl]pyrrolidin-3-yl}-1H-pyrrolo[2,3-c]pyridin-1-yl)-5-fluoro-N,N-di(propan-2-yl)benzamide [Example 8]”?
**A.** hERG/MV4; 11 [2]: 404; IC50 (MV4; 11 cells): 24 nM

**Q.** How did the “hERG/MV4; 11” value [2] turn out when “2-(3-{8-[(3S)-2-azabicyclo[2.2.2]octane-3-carbonyl]-8-azabicyclo[3.2.1]octan-3-yl}-1H-pyrrolo[2,3-c]pyridin-1-yl)-5-fluoro-N-methyl-N-(propan-2-yl)benzamide [Example 20]” was run?
**A.** 373

**Q.** What about the IC50 (MV4; 11 cells) of the same compound?
**A.** 85 nM

**Q.** For “5-fluoro-2-(3-{8-[(1S,3S,4R)-5-methylidene-2-azabicyclo[2.2.2]octane-3-carbonyl]-8-azabicyclo[3.2.1]octan-3-yl}-1H-pyrrolo[2,3-c]pyridin-1-yl)-N,N-di(propan-2-yl)benzamide [Example 23]”, which IC50 (MV4; 11 cells) is on record?
**A.** 280 nM

**Q.** Which IC50 ([1]; hERG IC50, hERG current) does the source give for `CC(C)N(C(=O)c1cc(F)ccc1-n1cc(C2=CC3CCC(C2)N3C(=O)[C@H]2NC3CCC2CC3)c2ccncc21)C(C)C` (single isomer, unassigned) [Example 19b] here?
**A.** 4500 nM

**Q.** What about the “hERG/MV4; 11” value [1] of the same compound?
**A.** 32

**Q.** What about the IC50 (MV4; 11 cells) of the same compound?
**A.** 140 nM

**Q.** Which results are given for `CC(C)N(C)C(=O)c1cc(F)ccc1-n1cc(C2CCCN(C(=O)[C@H]3N[C@@H]4CC[C@H]3C4)CC2)c2ccncc21` (mixture of isomers) [Example 10, 2-(3-{1-[(1R,3S,4S)-2-azabicyclo[2.2.1]heptane-3-carbonyl]azepan-4-yl}-1H-pyrrolo[2,3-c]pyridin-1-yl)-5-fluoro-N-methyl-N-(propan-2-yl)benzamide]?
**A.** IC50 ([1]; hERG IC50, hERG current): 55000 nM; IC50 (MV4; 11 cells; Homo sapiens, MV4-11, 168 h): 89 nM

**Q.** Which IC50 (MV4; 11 cells) does the source give for “2-(3-{2-[(1R,3S,4S)-2-azabicyclo[2.2.1]heptane-3-carbonyl]-2-azaspiro[3.4]octan-6-yl}-1H-pyrrolo[2,3-c]pyridin-1-yl)-5-fluoro-N-methyl-N-(propan-2-yl)benzamide [Example 24]” here?
**A.** 58 nM

**Q.** Which results are given for “2-[3-({1-[(3S)-2-azabicyclo[2.2.2]octane-3-carbonyl]azetidin-3-yl}methyl)-1H-pyrrolo[2,3-c]pyridin-1-yl]-5-fluoro-N-methyl-N-(propan-2-yl)benzamide [Example 26]”?
**A.** hERG/MV4; 11 [2]: >59; IC50 (MV4; 11 cells): 1700 nM

**Q.** Which “hERG/MV4; 11” value [2] does the source give for “2-(3-{1-[(3S)-2-azabicyclo[2.2.2]octane-3-carbonyl]azepan-4-yl}-1H-pyrrolo[2,3-c]pyridin-1-yl)-5-fluoro-N-methyl-N-(propan-2-yl)benzamide [Example 11]” here?
**A.** >1287

**Q.** And the IC50 (MV4; 11 cells)?
**A.** < 30 nM

**Q.** With “5-fluoro-2-(3-{1-[(1S,3S,4S,5S)-5-fluoro-2-azabicyclo[2.2.2]octane-3-carbonyl]azepan-4-yl}-1H-pyrrolo[2,3-c]pyridin-1-yl)-N-methyl-N-(propan-2-yl)benzamide [Example 12]” as the compound, how does the “hERG/MV4; 11” value [2] read?
**A.** >1050

**Q.** What about the IC50 (MV4; 11 cells) of the same compound?
**A.** < 30 nM

**Q.** Which results are given for “(3S)—N-[(1S)-3-(1-{4-fluoro-2-[methyl(propan-2-yl)carbamoyl]phenyl}-1H-pyrrolo[2,3-c]pyridin-3-yl)cyclohexyl]-2-azabicyclo[2.2.2]octane-3-carboxamide [Example 30]”?
**A.** hERG/MV4; 11 [2]: 13; IC50 (MV4; 11 cells): 550 nM

**Q.** With “2-[3-({1-[(3S)-2-azabicyclo[2.2.2]octane-3-carbonyl]pyrrolidin-3-yl}methyl)-1H-pyrrolo[2,3-c]pyridin-1-yl]-5-fluoro-N-methyl-N-(propan-2-yl)benzamide [Example 25]” as the compound, how does the “hERG/MV4; 11” value [2] read?
**A.** 334

**Q.** And the IC50 (MV4; 11 cells)?
**A.** 29 nM

**Q.** How did the “hERG/MV4; 11” value [2] turn out when “5-fluoro-2-(3-{1-[(1S,3S,4R)-5-methylidene-2-azabicyclo[2.2.2]octane-3-carbonyl]piperidin-4-yl}-1H-pyrrolo[2,3-c]pyridin-1-yl)-N,N-di(propan-2-yl)benzamide [Example 5]” was run?
**A.** 589

**Q.** What about the IC50 (MV4; 11 cells) of the same compound?
**A.** 35 nM

**Q.** Which results are given for “2-(3-{1-[(3S)-2-azabicyclo[2.2.2]octane-3-carbonyl]-1,2,3,6-tetrahydropyridin-4-yl}-1H-pyrrolo[2,3-c]pyridin-1-yl)-5-fluoro-N-methyl-N-(propan-2-yl)benzamide [Example 2]”?
**A.** hERG/MV4; 11 [1]: 102; gap between concentration inhibiting 50% of MV4; 11 proliferation and concentration inhibiting 50% of hERG current [1]: more than 100 fold; IC50 [1, 3]: 54000 nM; IC50 (MV4; 11 cells): 530 nM

**Q.** Which results are given for `CC(C)N(C(=O)c1cc(F)ccc1-n1cc(C2=CC3CCC(C2)N3C(=O)[C@H]2NC3CCC2CC3)c2ccncc21)C(C)C` (single isomer, unassigned) [Example 19a]?
**A.** IC50 ([1]; hERG IC50, hERG current): 6000 nM; hERG/MV4; 11 [1]: >200; IC50 (MV4; 11 cells): < 30 nM

**Q.** For “2-[3-({4-[(3S)-2-azabicyclo[2.2.2]octane-3-carbonyl]piperazin-1-yl}methyl)-1H-pyrrolo[2,3-c]pyridin-1-yl]-5-fluoro-N-methyl-N-(propan-2-yl)benzamide [Example 28]”, which “hERG/MV4; 11” value [2] is on record?
**A.** >31

**Q.** And the IC50 (MV4; 11 cells)?
**A.** 3200 nM

**Q.** For “2-(3-{1-[(1S,3S,4R,6S)-6-(cyclopropylmethyl)-2-azabicyclo[2.2.2]octane-3-carbonyl]piperidin-4-yl}-1H-pyrrolo[2,3-c]pyridin-1-yl)-5-fluoro-N,N-di(propan-2-yl)benzamide [Example 6]”, which IC50 (MV4; 11 cells) is on record?
**A.** < 3 nM

**Q.** Which results are given for “2-(3-{1-[(3S)-2-azabicyclo[2.2.2]octane-3-carbonyl]piperidin-4-yl}-1H-pyrrolo[2,3-c]pyridin-1-yl)-5-fluoro-N-methyl-N-(propan-2-yl)benzamide [Example 4]”?
**A.** hERG/MV4; 11 [1]: >1370; gap between concentration inhibiting 50% of MV4; 11 proliferation and concentration inhibiting 50% of hERG current [1]: more than 100 fold; IC50 [1, 3]: > 100000 nM; gap between concentration inhibiting 50% of RS4; 11 proliferation and concentration inhibiting 50% of hERG current ([1]; text prints RS4, 11 cells (table is MV4; 11)): more than 1000 fold; IC50 (MV4; 11 cells): 73 nM; cell proliferation inhibition activity (MV4; 11 cells; summary in words): potent cell proliferation inhibition activity

**Q.** Which IC50 (MV4; 11 cells) does the source give for `C=C1C[C@@H]2CC[C@H]1[C@@H](C(=O)N1CCCC(c3cn(-c4ccc(F)cc4C(=O)N(C(C)C)C(C)C)c4cnccc34)CCC1)N2` [Example 18, 5-fluoro-2-(3-{1-[(1S,3S,4R)-5-methylidene-2-azabicyclo[2.2.2]octane-3-carbonyl]azocan-5-yl}-1H-pyrrolo[2,3-c]pyridin-1-yl)-N,N-di(propan-2-yl)benzamide] here?
**A.** 730 nM

**Q.** For “5-fluoro-N-methyl-2-(3-{8-[(1S,3S,4R)-5-methylidene-2-azabicyclo[2.2.2]octane-3-carbonyl]-8-azabicyclo[3.2.1]octan-3-yl}-1H-pyrrolo[2,3-c]pyridin-1-yl)-N-(propan-2-yl)benzamide [Example 21]”, which IC50 (MV4; 11 cells) is on record?
**A.** 430 nM
